Read-outs that look alike come from different tables or passages of the source.
Key:
mice tail-flick = test: Tail-flick test; details: for Tail-Flick, mouse ED50 i.c.v. / Tail-Flick, mouse ED50 i.v. / Analgesia in tail-flick test, in words: mouse
Description: Analgesia was tested in vivo in the mice tail-flick test. M5 was first intravenously administered and then directly into a brain ventricle.

[1] = test system: mice phenylquinone writhing; test: Phenylquinone writhing test; assay type: in vivo
Description: Analgesia was tested in vivo in the mice phenylquinone writhing test. M5 was intravenously administered.

[2] = test system: neuronal uptake of Serotonin (5-HT); assay type: biochemical; details: rat brain
Excerpt: The inhibition of neuronal uptake of Serotonin (5-HT) was investigated in in vitro rat brain binding experiments.

[3] = test system: neuronal uptake of norepinephrine (NE); test: Noradrenaline uptake inhibition, in vitro rat brain; assay type: biochemical; details: for IC50: read-out: Noradrenalin uptake IC50
Excerpt: The inhibition of neuronal uptake of monoamines (norepinephrine; NE) was investigated in in vitro rat brain binding experiments.

μ-opioid receptor = target: T1, μ-opioid receptor (Rattus norvegicus, UniProt P33535); test: μ-opioid (Naloxon) binding, in vitro rat brain
T1 construct: from tissue; host or cells: rat brain
T1 sequence (P33535 whole entry): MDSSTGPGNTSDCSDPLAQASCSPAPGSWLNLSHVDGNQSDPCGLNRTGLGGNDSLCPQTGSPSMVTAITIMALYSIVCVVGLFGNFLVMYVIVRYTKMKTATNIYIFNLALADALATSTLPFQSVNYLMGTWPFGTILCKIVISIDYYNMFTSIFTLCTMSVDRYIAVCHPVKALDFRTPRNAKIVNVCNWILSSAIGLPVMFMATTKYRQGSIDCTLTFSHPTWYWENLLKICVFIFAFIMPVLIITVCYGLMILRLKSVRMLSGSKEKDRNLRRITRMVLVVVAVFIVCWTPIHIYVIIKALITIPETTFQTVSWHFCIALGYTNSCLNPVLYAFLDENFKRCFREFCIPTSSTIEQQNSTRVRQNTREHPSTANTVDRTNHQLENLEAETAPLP
Excerpt: The μ-opioid receptor binding was investigated in in vitro rat brain binding experiments using naloxone.

[4] = rat brain, naloxone, read-out: Naloxone binding IC50

SMILES | ED50 (mice tail-flick; Mus musculus, iv, read-out: Tail-Flick, mouse ED50 i.v.) [mg/kg] | Tail-Flick, mouse ED50 i.c.v. (mice tail-flick) [μg/animal] | Writhing, mouse ED50 i.c.v. [1] [μg/animal] | ED50 ([1]; iv, mouse) [mg/kg] | IC50 [2] [µM] | Tail-Flick, mouse ED50 i.v. (mice tail-flick) | Writhing, mouse ED50 i.v. [1] | IC50 [3] [µM] | IC50 (μ-opioid receptor; [4]) [µM] | IC50 (μ-opioid receptor) [µM] | μ-opioid receptor affinity (naloxone binding), in words (μ-opioid receptor; rat brain) | Inhibition of serotonin uptake, in words [2] | Penetration of the blood brain barrier, in words (mice tail-flick; concluded from i.v. versus i.c.v. analgesia) | Analgesia in tail-flick test, in words (mice tail-flick; direct administration into a brain ventricle) | Analgesia in tail-flick test, in words (mice tail-flick; intravenously administered) | Analgesia in writhing test, in words ([1]; mouse, intravenous administration) | Inhibition of norepinephrine uptake, in words [3]
COc1cccc([C@@]2(O)CCCC[C@@H]2CN(C)C)c1 (racemic) [Tramadol, (1RS, 2RS)-2[(dimethylamino)methyl]-1-(3-methoxyphenyl)-cyclohexanol] | 13.6 | 98.0 | 67.3 | 6.93 | – | – | – | – | – | – | – | – | – | – | – | – | –
CN(C)C[C@H]1CCCC[C@]1(O)c1cccc(O)c1 [M1] | – | 2.1 | 0.58 | – | 24.2 | 1.90 mg/kg | 0.49 mg/kg | 41.4 | – | – | – | – | – | – | – | – | –
CNCC1CCCCC1(O)c1cccc(OC)c1 (stereo not drawn) [M2] | – | – | – | – | 10.4 | no effect | no effect | 4.27 | 49.1 | – | – | – | – | – | – | – | –
COc1cccc([C@@]2(O)CCCC[C@@H]2CN)c1 [M3] | – | – | – | – | 48.9 | no effect | no effect | 47.7 | 204 | – | – | – | – | – | – | – | –
NC[C@H]1CCCC[C@]1(O)c1cccc(O)c1 [M4] | – | – | – | – | 375 | no effect | no effect | 104 | 23.9 | – | – | – | – | – | – | – | –
CNCC1CCCCC1(O)c1cccc(O)c1 (stereo not drawn) [M5, O-desmethyl-N-mono-desmethyl-tramadol] | – | 32.4 | 4.99 | – | 120 | no effect | no effect | 13.3 | – | 0.31 | strong enough to induce in vivo analgesia | no pronounced effect | poor penetration of the blood brain barrier | a pronounced effect was seen | no pronounced effect | no pronounced effect | no pronounced effect
